Measured values published in patent US6172079A, “5-substituted-3-oxadiazolyl-1,6-naphthyridin-2(1H)-one derivatives” (Dainippon Pharmaceutical Co., Ltd., priority 1997, dated 2001).

Experiments:
[1] = system: ddY male mice (pentylentetrazol-induced convulsion); assay: Test of Increasing Activity on Pentylentetrazol-induced Convulsion; type: in vivo; settings: Mus musculus, 0.5 h, po, pentylentetrazol 70 mg/kg s.c. 15 min later, read-out: Effects (number of animals) with increased pentylentetrazol-induced convulsion (converted)
Description: It is known that benzodiazepine receptor inverse agonists increase convulsion induced by pentylentetrazol [cf. Progress in Neuro-Psychopharmacology and Biological Psychiatry, vol. […] Some compounds of the present invention were tested as to the activities of increasing the pentylentetrazol-induced convulsion.
A test compound (compounds disclosed in working examples) was orally administered to ddY male mice (weight; 22-25 g, five mice/group) in an amount of 5-100 mg/kg. […] The effects were evaluated by the number of mice among five mice, of which the convulsion increasing effects were observed.

[2] = molecular target: benzodiazepine receptor; assay: Benzodiazepine Receptor Binding Assay; settings: read-out: BZP-receptor Binding IC50; [3H]-diazepam 1.5 nM; rat brain crude synaptosome membrane; 0° C., 20 min
[3] = system: GABAA receptor complex (TBPS binding); assay: TBPS Binding Assay; design: species or system Wistar rats; settings: [35S]TBPS 0.4 nM, GABA 1 μM, rat cerebral cortex membrane, +% inverse agonistic, 0% antagonistic
Description: The TBPS (t-butylbicyclophosphonothionate) binding assay and the preparation of the membrane specimen were done in a similar manner to the method of Biggio, G. et al. [cf. European Journal of Pharmacology, vol.
That is, to the cerebral cortex was added a 50-fold volume of an ice-cooled buffer (a 50 mM Tris-citrate buffer containing 100 mM sodium chloride, pH 7.4) and the mixture was homogenized at 0-4° C. and then centrifuged at 20,000 g for 20 minutes. The pellets thus obtained were once subjected to homogenization in a buffer and centrifugation by the same procedure as above and then kept in freezed state at -80° C. for more than 20 hours. On the test day, the freezed pellets were thawed and then subjected twice to the homogenization-centrifugation procedure as described above.
Subsequently, the filter was moved into a liquid scintillation vial and thereto was added a liquid scintillation cocktail (ACS-II, manufactured by Amersham, USA, 10 ml) and allowed to stand for a fixed period of time. […] Separately, the same procedures were repeated in the presence of Picrotoxin to determine the non-specific binding amount. The non-specific binding amount was deducted from the total binding amount to give the specific binding amount. The binding activity of the test compound was calculated by a variation rate, i.e., a rate of the specific binding amount of the test compound to the specific binding amount in control (using a solvent).

Row | IC50 [2] | TBPS binding Variation Rate [3] | Structure (SMILES) | responders at 10 mg/kg [1] | responders at 100 mg/kg [1] | responders at 50 mg/kg [1] | responders at 20 mg/kg [1] | responders at 5 mg/kg ([1]; 5 mg/kg)
1 | 2.21 nM | 12% | COc1cccc(-c2nccc3[nH]c(=O)c(-c4noc(C)n4)cc23)c1 [Example 86, 3-(5-methyl-1,2,4-oxadiazol-3-yl)-5-(3-methoxyphenyl)-1,6-naphthyridin-2(1H)-one] | 40% | – | – | – | –
2 | 2.98 nM | 15% | Cc1nc(-c2cc3c(-c4ccc(F)cc4)nccc3[nH]c2=O)no1 [Example 6] | – | 80% | – | – | –
3 | 0.81 nM | 33% | CCc1nc(-c2cc3c(-c4ccco4)nccc3[nH]c2=O)no1 [Example 102] | 100% | – | – | – | –
4 | 10.5 nM | 22% | Cc1nc(-c2cc3c(-c4ccccc4C)nccc3[nH]c2=O)no1 [Example 89, 3-(5-Methyl-1,2,4-oxadiazol-3-yl)-5-(2-methylphenyl)-1,6-naphthyridin-2(1H)-one] | – | – | 100% | – | –
5 | – | 17% | Cc1ccc(-c2nccc3[nH]c(=O)c(-c4nc(C)no4)cc23)cc1 [Example 184] | – | – | 100% | – | –
6 | 1.55 nM | 8% | Cc1cccc(-c2nccc3[nH]c(=O)c(-c4nc(C)no4)cc23)c1 [Example 183, 3-(3-Methyl-1,2,4-oxadiazol-5-yl)-5-(3-methylphenyl)-1,6-naphthyridin-2(1H)-one] | – | – | – | 80% | –
7 | 1.08 nM | 25% | CCc1nc(-c2cc3c(-c4ccsc4)nccc3[nH]c2=O)no1 [Example 105] | – | – | 80% | – | –
8 | 0.83 nM | 21% | CCc1nc(-c2cc3c(-c4cccs4)nccc3[nH]c2=O)no1 [Example 103, 3-(5-Ethyl-1,2,4-oxadiazol-3-yl)-5-(2-thienyl)-1,6-naphthyridin-2(1H)-one] | 40% | – | – | – | –
9 | 9.77 nM | 21% | COc1ccc(-c2nccc3[nH]c(=O)c(-c4noc(C)n4)cc23)cc1 [Example 11, 3-(5-Methyl-1,2,4-oxadiazol-3-yl)-5-(4-methoxyphenyl)-1,6-naphthyridin-2(1H)-one] | 80% | – | – | – | –
10 | – | 18% | CCc1noc(-c2cc3c(C)nccc3[nH]c2=O)n1 [Example 191, 3-(3-Ethyl-1,2,4-oxadiazol-5-yl)-5-methyl-1,6-naphthyridin-2(1H)-one] | 100% | – | – | – | –
11 | 0.93 nM | – | CCCc1noc(-c2cc3c(-c4ccco4)nccc3[nH]c2=O)n1 [Example 220] | – | – | – | 80% | –
12 | 4.22 nM | 13% | CCCc1nccc2[nH]c(=O)c(-c3nc(CC)no3)cc12 [Example 192] | – | 100% | – | – | –
13 | 6.42 nM | 27% | COc1ccc(-c2nccc3[nH]c(=O)c(-c4nc(C)no4)cc23)cc1 [Example 187] | – | – | – | – | –
14 | 1.57 nM | 34% | Cc1noc(-c2cc3c(-c4ccsc4)nccc3[nH]c2=O)n1 [Example 190] | – | – | – | – | –
15 | 0.92 nM | 17% | CCc1noc(-c2cc3c(-c4cccc(F)c4)nccc3[nH]c2=O)n1 [Example 200, 3-(3-Ethyl-1,2,4-oxadiazol-5-yl)-5-(3-fluorophenyl)-1,6-naphthyridin-2(1H)-one] | – | – | 80% | – | –
16 | 4.21 nM | 21% | CCc1nc(-c2cc3c(C4CCC4)nccc3[nH]c2=O)no1 [Example 21] | – | – | – | – | –
17 | 6.08 nM | -14% | O=c1[nH]c2ccnc(-c3ccc(Cl)cc3)c2cc1-c1nc(C2CC2)no1 [Example 241] | – | – | – | – | –
18 | 2.33 nM | -11% | CC(C)c1nc(-c2cc3c(-c4ccc(F)cc4)nccc3[nH]c2=O)no1 [Example 47] | – | – | – | – | –
19 | 1.64 nM | 21% | Cc1nc(-c2cc3c(-c4cccc(F)c4)nccc3[nH]c2=O)no1 [Example 5] | – | – | – | – | 100%
20 | 2.04 nM | 10% | CCc1nc(-c2cc3c(C4CC4C)nccc3[nH]c2=O)no1 (centres unmarked) [Example 18, 3-(5-Ethyl-1,2,4-oxadiazol-3-yl)-5-(2-methylcyclopropyl)-1,6-naphthyridin-2(1H)-one] | – | – | – | 60% | –

Row | IC50 [2] | TBPS binding Variation Rate [3] | Structure (SMILES) | responders at 10 mg/kg [1] | responders at 100 mg/kg [1] | responders at 50 mg/kg [1] | responders at 20 mg/kg [1] | responders at 5 mg/kg ([1]; 5 mg/kg)
21 | 1.66 nM | -16% | O=c1[nH]c2ccnc(-c3cccc(Cl)c3)c2cc1-c1noc(C2CC2)n1 [Example 55] | – | – | – | – | –
22 | 1.55 nM | 21% | COc1cccc(-c2nccc3[nH]c(=O)c(-c4nc(C)no4)cc23)c1 [Example 186, 3-(3-Methyl-1,2,4-oxadiazol-5-yl)-5-(3-methoxyphenyl)-1,6-naphthyridin-2(1H)-one] | – | – | 80% | – | –
23 | 4.63 nM | 41% | Cc1nc(-c2cc3c(-c4ccccc4Cl)nccc3[nH]c2=O)no1 [Example 88] | 100% | – | – | – | –
24 | 3.41 nM | 15% | CCc1noc(-c2cc3c(-c4ccc(OC)cc4)nccc3[nH]c2=O)n1 [Example 210, 3-(3-Ethyl-1,2,4-oxadiazol-5-yl)-5-(4-methoxyphenyl)-1,6-naphthyridin-2(1H)-one] | 80% | – | – | – | –
25 | 1.59 nM | -10% | CC(C)c1noc(-c2cc3c(-c4ccc(F)cc4)nccc3[nH]c2=O)n1 [Example 228] | – | – | – | – | –
26 | 0.96 nM | -9% | CC(C)c1nc(-c2cc3c(-c4ccccc4)nccc3[nH]c2=O)no1 [Example 45] | – | – | – | – | –
27 | 4.73 nM | 37% | Cc1noc(-c2cc3c(-c4ccccc4Cl)nccc3[nH]c2=O)n1 [Example 179] | – | – | – | – | –
28 | 2.13 nM | 39% | Cc1noc(-c2cc3c(-c4ccccc4F)nccc3[nH]c2=O)n1 [Example 176] | – | – | – | – | –
29 | 0.81 nM | 13% | O=c1[nH]c2ccnc(-c3ccco3)c2cc1-c1nc(C2CC2)no1 [Example 245] | – | – | – | – | –
30 | 4.47 nM | 22% | CCc1nc(-c2cc3c(CC4CCCCC4)nccc3[nH]c2=O)no1 [Example 24] | – | – | – | – | –
31 | 1.03 nM | 11% | CCc1noc(-c2cc3c(-c4ccccc4)nccc3[nH]c2=O)n1 [Example 198] | – | – | – | – | –
32 | 1.16 nM | -13% | CCc1noc(-c2cc3c(-c4cccc(C)c4)nccc3[nH]c2=O)n1 [Example 206] | – | – | – | – | –
33 | 0.94 nM | 18% | CCc1noc(-c2cc3c(-c4cccs4)nccc3[nH]c2=O)n1 [Example 173, 3-(3-ethyl-1,2,4-oxadiazol-5-yl)-5-(2-thienyl)-1,6-naphthyridin-2(1H)-one] | – | – | – | 100% | –
34 | 4.12 nM | -15% | Cc1ccc(-c2nccc3[nH]c(=O)c(-c4nc(C5CC5)no4)cc23)cc1 [Example 244] | – | – | – | – | –
35 | 6.56 nM | 17% | CCc1nc(-c2cc3c(-c4ccncc4)nccc3[nH]c2=O)no1 [Example 107] | – | – | – | – | –
36 | 2.07 nM | 26% | CCc1noc(-c2cc3c(-c4ccncc4)nccc3[nH]c2=O)n1 [Example 213, 3-(3-Ethyl-1,2,4-oxadiazol-5-yl)-5-(4-pyridyl)-1,6-naphthyridin-2(1H)-one] | 100% | – | – | – | –
37 | 1.65 nM | 20% | Cc1nc(-c2cc3c(-c4ccccc4)nccc3[nH]c2=O)no1 [Example 4] | 80% | – | – | – | –
38 | 1.76 nM | -23% | CCc1nc(-c2cc3c(C4CCCCC4)nccc3[nH]c2=O)no1 [Example 23] | – | – | – | – | –
39 | 0.88 nM | 40% | CC(C)c1nccc2[nH]c(=O)c(-c3noc(C4CC4)n3)cc12 [Example 50] | – | – | – | – | –
40 | 1.75 nM | 34% | Cc1nc(-c2cc3c(-c4ccsc4)nccc3[nH]c2=O)no1 [Example 93] | – | – | – | – | –
